In this assay the test system is SARS-CoV-2. In words: Impedance-based (Maestro Z resistance/TEER) assay of SARS-CoV-2 cytopathic effect in Vero E6 monolayers. As to conditions: for IC50: Vero E6, pre-treated 1 hour, MOI 0.01, normalized resistance at 48 hpi; for inhibitory activity against SARS-CoV-2 (percent inhibition relative to DMSO control): Vero E6, serial half-log dilutions, MOI 0.01, 48 hours; for IC90: Vero E6, MOI 0.01, normalized resistance at 48 hpi. It is filed as cell-based.

The mark [1] stands for this setting: Severe acute respiratory syndrome coronavirus 2, Vero C1008.
[2] abbreviates: Severe acute respiratory syndrome coronavirus 2, Vero C1008, non-toxic doses, read-out: estimated IC50.

Like-named read-outs stand apart in the source and are kept apart here.

Take `CCC(CC)COC(=O)[C@H](C)N[P@](=O)(OC[C@H]1O[C@@](C#N)(c2ccc3c(N)ncnn23)[C@H](O)[C@@H]1O)Oc1ccccc1` [Remdesivir]: the IC50 (Severe acute respiratory syndrome coronavirus 2, Vero C1008, read-out: 50% inhibitory concentration (IC50)) came to 1540 nM. With `CCC/C=C/C/C=C/C=C/C=N/NN=O` [Triacsin C], the IC50 (read-out: 50% inhibitory concentration (IC50)) was about 20000 nM.

As for `CS(=O)(=O)O.O=C([C@@H]1CCCN(c2ccc3[nH]c(C4(n5cc(Cl)cn5)CC4)nc3n2)C1)N1CCCC1` [PF06424439], the “inhibitory activity against SARS-CoV-2 (percent inhibition relative to DMSO control)” value is recorded as “Neither compound displayed any inhibitory activity”. Same read-out and setting: the result for `CC1(C)Oc2ncnc(N)c2N=C1c1ccc([C@H]2CC[C@H](CC(=O)O)CC2)cc1` [T863] reads “Neither compound displayed any inhibitory activity”. Consider `CCCCCCCCCCC[C@@H](C[C@@H]1OC(=O)[C@H]1CCCCCC)OC(=O)[C@H](CC(C)C)NC=O` [Orlistat], for which the “completeness of inhibition of viral cytopathic effects” value (with 500 µM, Vero E6) is recorded as “complete inhibition was not achieved”. Turning to `Nc1ncc(-c2ccnc(Nc3ccncc3)n2)c(CC2CC2)n1` [PIK-III], under setting [1], the IC90 (usually the concentration needed for an effect of 90%) was 1810 nM. Further, the IC50 under setting [2] is under 600 nM.

With `CC(C)(O)CNc1ncc(-c2ccnc(Nc3ccncc3)n2)c(CC2CC2)n1` [VPS34-IN1], it took 2520 nM to reach the 90% level under setting [1] (IC90). Further, under setting [2], the IC50 was under 600 nM.
